What all share (type): binding
Holding throughout (conditions): read-out: [drawing 1] /

Assay [1] addresses T1, UbiG (Escherichia coli, UniProt P17993, DEL165-187).
T1 construct: full-length, 240 residues, pET28a-UbiG (1-240), expressed in E. coli BL21 (DE3); purified as described previously
Description: isothermal titration calorimetry; X-ray structure of the complex […] Å.

Assay [2] addresses T2, UbiG (Escherichia coli, UniProt P17993, I177A/P182A/V181A).
T2 construct: full-length, 240 residues, pET28a-UbiG (1-240), expressed in E. coli BL21 (DE3); purified as described previously
Kind of assay: isothermal titration calorimetry. The source says:
(§1) isothermal titration calorimetry on UbiG

Assay [3] deals with T3, UbiG (Escherichia coli, UniProt P17993, V172A/Y176A).
T3 construct: full-length, 240 residues, pET28a-UbiG (1-240), expressed in E. coli BL21 (DE3); purified as described previously
T3 sequence (P17993 whole entry V172A/Y176A): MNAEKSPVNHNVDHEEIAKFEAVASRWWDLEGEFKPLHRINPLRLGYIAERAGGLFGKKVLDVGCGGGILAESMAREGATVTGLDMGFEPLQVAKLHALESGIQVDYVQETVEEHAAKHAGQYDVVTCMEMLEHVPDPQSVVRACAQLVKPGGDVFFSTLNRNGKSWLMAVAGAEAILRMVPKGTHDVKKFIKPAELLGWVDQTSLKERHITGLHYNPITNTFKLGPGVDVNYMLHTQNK
Kind of assay: isothermal titration calorimetry.
Excerpt: as §1

The target in assay [4] is T4, UbiG (Escherichia coli, UniProt P17993).
T4 construct: full-length, 240 residues, pET28a-UbiG (1-240), expressed in E. coli BL21 (DE3); purified as described previously
T4 sequence (P17993 1-240): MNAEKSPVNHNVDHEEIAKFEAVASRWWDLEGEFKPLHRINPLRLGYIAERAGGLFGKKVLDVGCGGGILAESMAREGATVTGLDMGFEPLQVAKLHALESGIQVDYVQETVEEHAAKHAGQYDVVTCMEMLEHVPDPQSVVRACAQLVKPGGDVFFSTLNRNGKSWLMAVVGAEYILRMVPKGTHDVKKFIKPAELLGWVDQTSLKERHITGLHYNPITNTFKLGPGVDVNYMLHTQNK
Kind of assay: isothermal titration calorimetry.
Excerpt: as §1

T1 sequence (P17993 other isoform, or with tags, fused parts or gaps DEL165-187): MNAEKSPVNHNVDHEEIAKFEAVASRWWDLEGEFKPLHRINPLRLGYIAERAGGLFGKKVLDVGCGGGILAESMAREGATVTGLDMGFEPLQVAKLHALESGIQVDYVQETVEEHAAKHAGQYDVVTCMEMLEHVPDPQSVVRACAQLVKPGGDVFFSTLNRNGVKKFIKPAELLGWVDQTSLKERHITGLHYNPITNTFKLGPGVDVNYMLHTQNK
T2 sequence (P17993 whole entry I177A/V181A/P182A): as the sequence (P17993 whole entry V172A/Y176A) above, with A172V, A176Y, I177A, V181A, P182A counted along it

On to `Nc1ncnc2c1ncn2[C@@H]1O[C@H](CSCC[C@H](N)C(=O)O)[C@@H](O)[C@H]1O` [SAH], for which the Kd on UbiG [1] was determined as 1.84 ± 0.16 µM; on UbiG [2], 2.77 ± 0.36 µM; on UbiG [3] it was 3.37 ± 0.84 µM; on UbiG [4], 104 ± 17.2 µM.

The values are drawn from PMC4796655, “Structural insights into the methyl donor recognition model of a novel membrane-binding protein UbiG” (Scientific Reports, 2016).
